According to PubChem BioAssay AID850 (SRMLSC, 2007):
The source made the active and inactive calls. The rule behind the calls is not given here.

How the values were obtained:
[1] = system: Saccharomyces cerevisiae growth inhibition, permissive control; assay: yeast lifespan-shortening chemical project counter-assay, dose-response inhibition of growth under permissive conditions (AID 850);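 note: growth read as optical density after one day of incubation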
[2] = as above; conditions: Saccharomyces cerevisiae growth inhibition, permissive control, measured here: maximum growth inhibition, stronger effect = higher value

Row | SMILES | IC50 [1] | inhibition ([2]; at 50 µM) [%] | also measured
1 | CCOc1cc(N2CCOCC2)c(OCC)cc1NC(=O)COc1cccc2cccnc12 | > 100 µM (inactive) | – | inhibition ([2]; at 0.098 µM): 11.3%
2 | Cc1ccc(/C=C2\C(=O)Nc3ccccc32)o1 | > 100 µM (inactive) | – | inhibition ([2]; at 25 µM): 26.6%
3 | COc1ccc(/C=C2/C(=O)ON=C2c2ccccc2)cc1OC | > 100 µM (inactive) | – | inhibition ([2]; at 25 µM): 27.4%
4 | Cc1ccc(O)c(-c2cc(-c3ccccc3C)[nH]n2)c1 | 44.7 µM | 56.5 | –
5 | CN1CCN(C2=Cc3ccc(Cl)cc3Sc3ccc(F)cc32)CC1 | 27.2 µM | 99.8 | –
6 | COC(=O)Cn1c2ccccc2c2nc(C)sc21 | > 100 µM (inactive) | – | inhibition ([2]; at 6.25 µM): 28.7%
7 | Cc1ccc(COc2ccc(Br)cc2/C=N/O)cc1 | > 100 µM (inactive) | – | inhibition ([2]; at 0.098 µM): -1.78%
8 | c1ccc(N(c2ccccc2)c2nc(-n3ccnc3)nc(-n3ccnc3)n2)cc1 | 37.6 µM | 62.1 | –
9 | c1ccc(Cc2nnc3sc(-c4ccc5c(c4)OCCO5)nn23)cc1 | > 100 µM (inactive) | – | inhibition ([2]; at 1.563 µM): 14.5%
10 | COc1cc(/C=C2\C(=O)ON=C2c2ccccc2)cc(OC)c1OC | > 100 µM (inactive) | – | inhibition ([2]; at 0.781 µM): -2.57%
11 | Cc1cccc(N=C2Sc3nc4c(C)c(C)ccc4cc3CN2CCN2CCOCC2)c1 | 45.1 µM | 99 | –
12 | NC(=O)c1sc2nc(-c3ccco3)ccc2c1N | > 100 µM (inactive) | – | inhibition ([2]; at 1.563 µM): 8.46%
13 | Cc1ccc(C(=O)c2c(C)oc3c2C(=O)C(=O)c2ccccc2-3)cc1 | 43.6 µM | 95.5 | –
14 | Cc1noc2ncnc(Sc3ccccc3Cl)c12 | 39.5 µM | 69 | –
15 | CN1C(=O)c2cccc3c(Cl)ccc(c23)C1=O | > 100 µM (inactive) | 19.1 | –
16 | COc1ccc(C(=O)C(C)(C)NO)cc1 | 46.8 µM | 50.7 | –
17 | Oc1c(C(Nc2nc3ccccc3s2)c2ccco2)ccc2cccnc12 (configuration not stated) | > 100 µM (inactive) | 23.2 | –
18 | CCCCS(=O)(=O)/C=C\C=C/S(=O)(=O)CCCC | > 100 µM (inactive) | – | inhibition ([2]; at 6.25 µM): 21.2%
19 | O=C(/C=C/c1ccccc1)c1cc(Br)ccc(=O)c1O | 12.2 µM | 98.8 | –
20 | CCCCN(CCCC)C(=S)N/N=C/c1c(C)[nH]n(-c2ccccc2)c1=O | > 100 µM (inactive) | – | inhibition ([2]; at 0.781 µM): 19.7%
21 | O=C(O)CSc1nc(-c2ccc(Cl)cc2)nc2c1oc1ccccc12 | 32.1 µM | 86.6 | –

Row | SMILES | IC50 [1] | inhibition ([2]; at 50 µM) [%] | also measured
22 | Cc1ccnn2cc3c(=O)n(C)c(=O)n(C)c3c12 | 37.6 µM | 64.1 | –
23 | O=C(CSCc1ccco1)Nc1cc(C(F)(F)F)ccc1N1CCOCC1 | > 100 µM (inactive) | – | inhibition ([2]; at 0.781 µM): 16.7%
24 | COc1ccc(/C(C)=N/NC(=O)c2ccc(CSc3cccc4cccnc34)cc2)cc1OC | > 100 µM (inactive) | – | inhibition ([2]; at 6.25 µM): 12.5%
25 | C=CCn1c2ccccc2c2nnc(SCN3C(=O)c4ccccc4C3=O)nc21 | > 100 µM (inactive) | – | inhibition ([2]; at 6.25 µM): 12.7%
26 | COc1ccc(C(=O)/C=C/N2CCCCC2)cc1OC | 29.4 µM | 91.2 | –
27 | O=[N+]([O-])c1ccc(Cl)c(S(=O)(=O)N2CCCCCC2)c1 | 31.8 µM | 58.1 | –
28 | O=C(NNC(=S)NC(=O)C12CC3CC(CC(C3)C1)C2)c1ccncc1 | 13.4 µM | 94.8 | –
29 | Cc1ccc(-c2cc(-c3ccccc3C)[nH]n2)c(O)c1 | 22.2 µM | 89.4 | –
30 | S=C(Nc1ccc(Oc2ccccc2)cc1)NC1CCCCCC1 | > 100 µM (inactive) | – | inhibition ([2]; at 0.391 µM): 19.9%
31 | c1ccc(-c2nc(-n3ccnc3)nc(-n3ccnc3)n2)cc1 | > 100 µM (inactive) | – | inhibition ([2]; at 1.563 µM): 17.9%
32 | Clc1ccccc1N/N=C/c1ccc2c(c1)OCO2 | 24.4 µM | 98 | –
33 | C/C(=N\Nc1ccc(Cl)c(Cl)c1)c1ccc(-n2ccnc2)cc1 | 26.7 µM | 96.7 | –
34 | Nc1ccc(C(=O)OCC(=O)Nc2ccc3c(c2)OCO3)cc1[N+](=O)[O-] | > 100 µM (inactive) | – | inhibition ([2]; at 0.391 µM): 17.2%
35 | O=C1NC(=S)N(c2ccccc2F)C(=O)/C1=C\c1cccs1 | 13.6 µM | 91.4 | –
36 | CCOCC(=O)Nc1nc2c(s1)C(=O)CC(C)(C)C2 | > 100 µM (inactive) | 1.4 | –
37 | O=[N+]([O-])c1ccc(N/N=C2/CCCCC2c2ccccn2)cc1 (configuration not stated) | 1.94 µM | 98.4 | –
38 | COc1ccc2c(c1)S/C(=C\C(=O)c1ccncc1)N2C | 6.24 µM | 92.6 | –
39 | O=C1c2ccccc2NC(c2ccc(-c3cccc(Cl)c3)o2)N1O (configuration not stated) | 47.1 µM | 52.3 | –
40 | Cc1ccc(/C=C2\C(=O)NC(=S)N(c3ccccc3F)C2=O)s1 | > 100 µM (inactive) | – | inhibition ([2]; at 6.25 µM): 29%
41 | CC1=CC(=O)C=C(C)C1=NOS(=O)(=O)c1ccccc1 | 26.4 µM | – | inhibition ([2]; at 12.5 µM): 62.4%
42 | C(=C\c1nc(N2CCCCCC2)c2ccccc2n1)/c1ccccc1 | 39.2 µM | 78.2 | –

Row | SMILES | IC50 [1] | inhibition ([2]; at 50 µM) [%] | also measured
43 | O=[N+]([O-])c1ccccc1-c1cc(-c2cc(Cl)ccc2O)n[nH]1 | > 100 µM (inactive) | – | inhibition ([2]; at 12.5 µM): 16.3%
44 | O=[N+]([O-])c1ccc(O)c(/C=N/Nc2ccccn2)c1 | > 100 µM (inactive) | – | inhibition ([2]; at 0.781 µM): 16.1%
45 | CCOc1ccccc1C1CC(c2ccc(Br)cc2)Nc2nc(N)nn21 (configuration not stated) | > 100 µM (inactive) | – | inhibition ([2]; at 0.781 µM): 10.2%
46 | O=C(CCc1ccccc1)NNC(=S)NC(=O)c1ccccc1 | > 100 µM (inactive) | – | inhibition ([2]; at 12.5 µM): 22.5%
47 | CC(C)(C)c1cc(NCCCn2ccnc2)n2ncc(-c3ccc(Cl)cc3)c2n1 | > 100 µM (inactive) | – | inhibition ([2]; at 12.5 µM): 1.41%
48 | Cn1c(C(=O)N2CCC(C(=O)N3CCN(Cc4ccc5c(c4)OCO5)CC3)CC2)cc2sccc21 | > 100 µM (inactive) | – | inhibition ([2]; at 12.5 µM): 18%
49 | CCCCCC/C(C)=C1/SC(=S)NC1=O | > 100 µM (inactive) | – | inhibition ([2]; at 12.5 µM): 15.5%
50 | NNC(=O)c1cccc(COc2ccc3c(c2)CCC3)c1 | 33.3 µM | 71 | –
51 | CCc1ccc2c(c1)C1(NN=C(c3ccc(C)cc3)S1)C(=O)N2 (configuration not stated) | 21.3 µM | 98 | –
52 | O=C(O)c1cc2ccc3ccccc3c2oc1=O | 32 µM | 64.3 | –
53 | CC1CCC2(CC1)NC(=S)N(c1ccccc1)N2 (configuration not stated) | 14.1 µM | 97.5 | –
54 | Cc1nn(-c2cccc(C(F)(F)F)c2)c(Cl)c1/C=N/Nc1cccc(C(=O)O)c1 | 41.2 µM | 81.6 | –
55 | COc1ccc(OCCNC2CCCC2)cc1 | > 100 µM (inactive) | – | inhibition ([2]; at 0.195 µM): 7.53%
56 | Oc1cccc(/C=N/NC(=S)Nc2cccnc2)c1O | > 100 µM (inactive) | – | inhibition ([2]; at 0.781 µM): 7.13%
57 | C=CCn1cnc2c(c1=O)c1nc3ccccc3nc1n2/N=C/c1cc(OC)c(OC)c(OC)c1 | 25.8 µM | – | inhibition ([2]; at 25 µM): 46.7%
58 | O=C1c2ccccc2NC(c2ccc(-c3ccc(Br)cc3)o2)N1O (configuration not stated) | 18.9 µM | 99 | –
59 | O=C(CSc1cccc[n+]1[O-])c1cc2ccccc2o1 | 3.68 µM | 99.2 | –
60 | OC(COc1ccc2ccccc2c1Br)Cn1cnc(-c2ccccc2)c1 (configuration not stated) | > 100 µM (inactive) | 20.9 | –
61 | O=C(Nc1cc(C(F)(F)F)ccc1Cl)C(Sc1cccc[n+]1[O-])c1ccccc1 (configuration not stated) | 6.31 µM | 99.8 | –
62 | O=C(CSC1=NCCS1)N1CCN(c2ccc(Cl)cc2)CC1 | > 100 µM (inactive) | 20.7 | –
63 | c1ccc2nc3ccccc3nc2c1 | 44.8 µM | 55.6 | –

Row | SMILES | IC50 [1] | inhibition ([2]; at 50 µM) [%] | also measured
64 | CC1=C(C)/C(=N\OS(=O)(=O)c2ccccc2)C=CC1=O | 6.14 µM | 99 | –
65 | O=C(Nc1nc(-c2ccccn2)cs1)C1COc2ccccc2O1 (configuration not stated) | 11.6 µM | 95.2 | –
66 | O=C1c2ccc3c4c(ccc(c24)C(=O)N1NC(=O)C(F)(F)F)CC3 | > 100 µM (inactive) | – | inhibition ([2]; at 0.195 µM): 15.2%
67 | CCN1CCN(C(=O)C(NS(=O)(=O)c2ccc3nc(C)sc3c2)C(C)C)CC1 (configuration not stated) | > 100 µM (inactive) | – | inhibition ([2]; at 0.098 µM): 16.9%
68 | O=C(COc1ccc(Cl)cc1)NC1=NN(c2ccccc2)C(=O)C1 | > 100 µM (inactive) | – | inhibition ([2]; at 6.25 µM): 14.6%
69 | O=C(O)c1cc(-c2ccc(/C=N/Nc3ccc(Cl)cc3)o2)ccc1Cl | 4.41 µM | 98.8 | –
70 | CC(C)C(=O)NC(c1ccccc1)c1cc([N+](=O)[O-])c2cccnc2c1O (configuration not stated) | 29.6 µM | 93.4 | –
71 | CCCc1cc(C(=O)Cc2ccc(F)cc2)c(O)cc1O | 26.9 µM | 80.4 | –
72 | O=C(OCn1ncc(Cl)c(Cl)c1=O)c1cccc(C(F)(F)F)c1 | > 100 µM (inactive) | 12.7 | –
73 | O=c1[nH][nH]cc1C=Nc1ccccc1O | > 100 µM (inactive) | – | inhibition ([2]; at 1.563 µM): 12.5%
74 | COc1ccccc1OCCCc1c(C)n[nH]c1C | 5.76 µM | 100 | –
75 | Cc1cccc(/C=C/C(=O)c2cc(Br)ccc(=O)c2O)c1 | 12.2 µM | 83.2 | –
76 | CCOc1ccc(N/N=C(/C#N)C(N)=O)cc1 | 11 µM | 87.7 | –
77 | Cc1cccc(N=Nc2ccc(O)c3ncccc23)c1 | > 100 µM (inactive) | 27.9 | –
78 | O=C1OCC(CO)(CO)N=C1NNc1cc(Cl)ccc1Cl | 11.4 µM | 99.2 | –
79 | COc1ccccc1NC(=O)Cc1noc(CSc2cccc[n+]2[O-])n1 | 21.9 µM | 97.7 | –
80 | O=C1C(=O)c2c(C(=O)c3ccccc3)coc2-c2ccccc21 | 10.3 µM | 99.6 | –
81 | C=CCN1C(C(=O)c2ccccc2)=C(OC(=O)COc2ccccc2)c2ccccc2S1(=O)=O | 43.1 µM | 65.8 | –
